Reference: patent publication US20250296959A1, “B7-H3 TARGETING PEPTIDES AND CONSTRUCTS THEREOF” (Mariana Oncology Inc., priority 2024, published 2025)
Like-named read-outs stand apart in the source and are kept apart here. Starred links: 1 amine or outer side, 2 acyl side, 3 side chain; linkers in the order of their positions; H or OH if unused. Positions of bridges follow the written chain, without caps; N, C: chain ends. Non-standard residues stand in square brackets, D forms with d. Residues, ends and D or L forms follow the SMILES beside them. Groups on a side chain read outwards from the residue. *: point of attachment. Ala(1-CH2CO2H-4-piperidyl) = N[C@@H](CC1CCN(CC(=O)O)CC1)C(=O)O; Ala(piperidin-4-yl) = O=C([C@H](CC1CCN([*:3])CC1)N[*:1])[*:2]; DOTA = O=C(O)CN1CCN(CC(=O)O)CCN(CC(=O)*)CCN(CC(=O)O)CC1; Trp(5-F) = N[C@@H](Cc1c[nH]c2ccc(F)cc12)C(=O)O; X1 = C[C@@H](c1ccccc1)[C@H](N[*:1])C(=O)[*:2]; Ala(4-THP) = N[C@@H](CC1CCOCC1)C(=O)O; Val(3-OH) = CC(C)(O)[C@H](N)C(=O)O; PEG4 = NCCOCCOCCOCCOCCC(=O)O; Tle = CC(C)(C)[C@H](N)C(=O)O; hLeu = CC(C)CC[C@H](N)C(=O)O

Columns and labels:
2Ig B7-H3 = target: T1, 2Ig B7-H3 (Homo sapiens, UniProt Q5ZPR3); experiment: SPR binding affinity to 2Ig B7-H3
T1 sequence (Q5ZPR3 29-316 isoform Q5ZPR3-2 limits assumed): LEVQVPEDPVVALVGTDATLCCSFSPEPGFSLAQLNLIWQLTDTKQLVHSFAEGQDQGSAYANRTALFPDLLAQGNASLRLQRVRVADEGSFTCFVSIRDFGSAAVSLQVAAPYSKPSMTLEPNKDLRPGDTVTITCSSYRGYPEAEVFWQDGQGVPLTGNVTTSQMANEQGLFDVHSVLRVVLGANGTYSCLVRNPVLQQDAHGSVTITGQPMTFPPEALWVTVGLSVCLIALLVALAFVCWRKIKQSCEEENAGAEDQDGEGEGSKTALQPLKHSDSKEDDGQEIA

human 4lg B7-H3 = target: T2, human 4lg B7-H3 (Homo sapiens, UniProt Q5ZPR3); experiment: Affinity determination by surface plasmon resonance (SPR) to 4Ig B7-H3
T2 sequence (Q5ZPR3 29-534): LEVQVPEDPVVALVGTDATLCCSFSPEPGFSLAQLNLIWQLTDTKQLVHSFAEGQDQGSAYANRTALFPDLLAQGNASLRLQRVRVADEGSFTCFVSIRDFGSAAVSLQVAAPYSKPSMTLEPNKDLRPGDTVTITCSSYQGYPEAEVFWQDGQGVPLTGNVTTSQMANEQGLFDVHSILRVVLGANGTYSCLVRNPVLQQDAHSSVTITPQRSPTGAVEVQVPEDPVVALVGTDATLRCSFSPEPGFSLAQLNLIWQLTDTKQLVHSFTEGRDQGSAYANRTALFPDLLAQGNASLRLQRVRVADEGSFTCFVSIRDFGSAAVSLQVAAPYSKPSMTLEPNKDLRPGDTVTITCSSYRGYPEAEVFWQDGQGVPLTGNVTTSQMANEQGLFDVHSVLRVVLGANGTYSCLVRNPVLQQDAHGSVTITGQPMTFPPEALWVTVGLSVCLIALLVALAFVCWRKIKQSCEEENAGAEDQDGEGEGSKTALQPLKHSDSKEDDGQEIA

Calu-6 tumors = experiment: Ex vivo biodistribution of radiolabeled peptides in nude mice bearing Calu-6 tumors; conditions: [177Lu]Lu labeling, 24 h post-injection
Description: Mice were euthanized at pre-determined time points and selected tissues were resected and collected into pre-weighed tubes. The tubes were then reweighed post resection, the difference giving the weight of each tissue. Radioactivity in each tissue was measured using a gamma counter. Counts were decay corrected to the time of injection and percentage of injected activity per gram (% IA/g) was calculated for each tissue based on the injected activity into each individual mouse. Injected activity was converted to counts based on the sensitivity of the gamma counter. The counts in tissue were then converted to the percentage of injected activity and this was divided by the mass of tissue to give % IA/g.

Calu-6 cell line [1] = experiment: Cell associated (bound) fraction of [177Lu]Lu-labeled peptide in Calu-6 cells; format: cell-based, Human; conditions: 1 hour, 37° C.
In short: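 Peptide conjugate was labelled with [177Lu]LuCl3 in ammonium acetate pH ~5 at 80 °C for 17-20 min, with purity checked by RP-HPLC. Calu-6 suspensions (5 million cells/mL in 1% PBSA) were incubated with 0.8 μCi for 1 h at 37 °C. Cell pellets were gamma-counted after two cold PBS/BSA washes, giving the bound fraction against the unbound supernatant plus washes.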

Calu-6 cell line [2] = experiment: Net internalization of [177Lu]Lu-labeled peptide in Calu-6 cells; format: cell-based, Human; conditions: 1 hour, 37° C., glycine pH 2.5 acid wash
In short: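 Peptide conjugate labeled with [177Lu]LuCl3 at pH ~5, 80 °C, 17–20 min, and purity checked by RP-HPLC. B7-H3-expressing human Calu-6 lung cancer cells at 5 million cells/mL in 1% PBSA. Internalized fraction: counts left after two 3 min 50 mM glycine pH 2.5 washes and NaOH lysis, gamma counted against bound fraction.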

4lg-B7-H3 = target: T3, 4lg-B7-H3 (Homo sapiens, UniProt Q5ZPR3, S143D); experiment: X-ray crystal structure of compound bound to 4lg-B7-H3
T3 sequence (Q5ZPR3 29-456 S143D): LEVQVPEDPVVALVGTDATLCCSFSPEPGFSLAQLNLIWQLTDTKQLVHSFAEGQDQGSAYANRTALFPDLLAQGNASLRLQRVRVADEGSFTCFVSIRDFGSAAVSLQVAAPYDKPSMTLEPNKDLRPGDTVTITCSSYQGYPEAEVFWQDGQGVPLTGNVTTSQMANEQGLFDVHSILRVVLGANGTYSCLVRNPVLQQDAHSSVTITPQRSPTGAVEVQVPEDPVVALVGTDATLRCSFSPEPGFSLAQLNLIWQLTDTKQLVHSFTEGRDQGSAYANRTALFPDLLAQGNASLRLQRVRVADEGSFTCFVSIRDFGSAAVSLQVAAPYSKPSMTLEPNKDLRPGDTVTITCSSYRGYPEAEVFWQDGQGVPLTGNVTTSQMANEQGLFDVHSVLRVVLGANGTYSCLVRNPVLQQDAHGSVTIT
Description: The x-ray crystal structure of an exemplary compound of the disclosure bound to 4lg-B7-H3 was determined. Suitable constructs for B^7H3 expression had been previously established by PROTEROS. Expression of B^7H3 was performed according to previously established protocols. A purification protocol was established and homogeneous protein was produced in preparative amounts. The protein was purified comprising affinity and gel filtration chromatography steps. This procedure yielded homogenous protein with a purity greater 95% as judged from Coomassie stained SDS-PAGE. A 4lg-B7-H3 sequence from amino acid 29-456 was employed. The following sequence corresponds to amino acids 1-534 of 4lg-B7-H3:
The purified protein was used in crystallization trials employing both, a standard screen with approximately 1200 different conditions, as well as crystallization conditions identified using literature data. Conditions initially obtained have been optimized using standard strategies, systematically varying parameters critically influencing crystallization, such as temperature, protein concentration, drop ratio, and others. These conditions were also refined by systematically varying pH or precipitant concentrations.
A cryo-protocol was established using PROTEROS Standard Protocols. Crystals have been flash-frozen and measured at a temperature of 100 K. The X-ray diffraction data have been collected from complex crystals of 4lg-B7-H3 with the ligand of Cpd #200 at the SWISS LIGHT SOURCE (SLS, Villigen, Switzerland) using cryogenic conditions. The crystals belong to space group P 61 2 2. Data were processed using the programs autoPROC, XDS and autoPROC, AIMLESS. […]
Subsequent model building and refinement was performed according to standard protocols with COOT and the software package CCP4, respectively. For the calculation of the free R-factor, a measure to cross-validate the correctness of the final model, about 4.8% of measured reflections were excluded from the refinement procedure (Table 27). […]

SMILES	Kd (2Ig B7-H3) [nM]	Kd (human 4lg B7-H3) [nM]	kidney uptake (% IA/g) (Calu-6 tumors)	tumor uptake (% IA/g) (Calu-6 tumors)	% cell associated fraction (Calu-6 cell line [1])	% net internalization (Calu-6 cell line [2])	Resolution [Å] (4lg-B7-H3; complex crystals of 4lg-B7-H3 with ligand, parenthesis = highest resolution bin)	specific hydrogen bonds to 4lg-B7-H3 (4lg-B7-H3; distance of less than 3.5 Å of donor and acceptor atoms)	ligand binding site in 4lg-B7-H3 (4lg-B7-H3; extracellular domain residues 29-456)	Kd (human 4lg B7-H3; read-out: SPR KD—25° C., 4Ig B7-H3, 25° C. flow cell temperature) [nM]	Kd (human 4lg B7-H3; read-out: SPR KD—37° C., 4Ig B7-H3, 37° C. flow cell temperature) [nM]
CC(=O)N[C@@H](CCC(C)C)C(=O)N[C@@H](Cc1ccc(O)cc1)C(=O)N[C@H]1CSSC[C@@H](C(=O)N[C@@H](Cc2c[nH]c3ccc(F)cc23)C(=O)N[C@H](C(=O)N[C@H](C(=O)N[C@H](C)C(=O)O)C(C)(C)O)[C@@H](C)c2ccccc2)NC(=O)[C@H](Cc2ccc(O)cc2)NC(=O)[C@H](C(C)C)NC(=O)[C@H](CC(=O)O)NC(=O)[C@H](CC2CCN(C(=O)CCOCCOCCOCCOCCNC(=O)CN3CCN(CC(=O)O)CCN(CC(=O)O)CCN(CC(=O)O)CC3)CC2)NC(=O)[C@H](CC2CCN(CC(=O)O)CC2)NC(=O)CNC(=O)[C@H](C(C)(C)C)NC1=O [compound 526, Ac-hLeu-Y-C-Tbg-G-Pip(CH2COOH)Ala-Pip(PEG4-DOTA)Ala-D-V-Y-C-5FW-[(2S, 3S)beta-Me-Phe]-hydroxyVal-dAla-COOH] (Ac-[hLeu]YC[Tle]G[Ala(1-CH2CO2H-4-piperidyl)][Ala(piperidin-4-yl)]([PEG4-DOTA])DVYC[Trp(5-F)][X1][Val(3-OH)][dA]-OH; disulfide 3-11)	380	< 1	D (% IA/g > 10 in kidney)	A (0 < % IA/g ≤ 5 in tumor)	–	–	–	–	–	–	–
CC(=O)N[C@@H](CCC(C)C)C(=O)N[C@@H](Cc1ccc(O)cc1)C(=O)N[C@H]1CSSC[C@@H](C(=O)N[C@@H](Cc2c[nH]c3ccc(F)cc23)C(=O)N[C@@H](Cc2ccccc2)C(=O)N[C@H](C(=O)N[C@H](CCCCNC(=O)CN2CCN(CC(=O)O)CCN(CC(=O)O)CCN(CC(=O)O)CC2)C(N)=O)[C@@H](C)O)NC(=O)[C@H](Cc2ccc(O)cc2)NC(=O)[C@H](C(C)C)NC(=O)[C@H](CC(=O)O)NC(=O)[C@H](CC2CCOCC2)NC(=O)[C@H](CCCCN)NC(=O)CNC(=O)[C@H](C(C)C)NC1=O [compound 200, Ac-hLeu-Y-C-V-G-K-ThpA-D-V-Y-C-5FW-F-Thr-dLys(DOTA)-CONH2] (Ac-[hLeu]YCVGK[Ala(4-THP)]DVYC[Trp(5-F)]FT[dK](DOTA)-NH2; disulfide 3-11)	–	–	–	–	C (%>50)	A (%≤25)	2.98 (3.28-2.98) Å	eleven	bound between the Ig-like C2-type 1 and Ig-like V-type 2 domains	< 1	1 to 10
CC(=O)N[C@@H](CCC(C)C)C(=O)N[C@@H](Cc1ccc(O)cc1)C(=O)N[C@H]1CSSC[C@@H](C(=O)N[C@@H](Cc2c[nH]c3ccc(F)cc23)C(=O)N[C@H](C(=O)N[C@H](C(=O)N[C@H](CCC(=O)O)C(N)=O)C(C)(C)O)[C@@H](C)c2ccccc2)NC(=O)[C@H](Cc2ccc(O)cc2)NC(=O)[C@H](C(C)C)NC(=O)[C@H](CC(=O)O)NC(=O)[C@H](CC2CCN(C(=O)CCOCCOCCOCCOCCNC(=O)CN3CCN(CC(=O)O)CCN(CC(=O)O)CCN(CC(=O)O)CC3)CC2)NC(=O)[C@H](CC2CCN(CC(=O)O)CC2)NC(=O)CNC(=O)[C@H](C(C)(C)C)NC1=O [compound 496, Ac-hLeu-Y-C-Tbg-G-Pip(CH2COOH)Ala-Pip(PEG4-DOTA)Ala-D-V-Y-C-5FW-[(2S, 3S)beta-Me-Phe]-hydroxyVal-dGlu-CONH2] (Ac-[hLeu]YC[Tle]G[Ala(1-CH2CO2H-4-piperidyl)][Ala(piperidin-4-yl)]([PEG4-DOTA])DVYC[Trp(5-F)][X1][Val(3-OH)][dE]-NH2; disulfide 3-11)	526	< 1	C (0 < % IA/g ≤ 10 in kidney)	A (0 < % IA/g ≤ 5 in tumor)	B (25<%≤50)	A (%≤25)	–	–	–	–	–
